These results are taken from ChEMBL document CHEMBL6071132, “Synthetic approaches and application of representative clinically approved fluorine-enriched anti-cancer medications” (Eur J Med Chem, 2024).

The target of data set [1] is ALK tyrosine kinase receptor (Homo sapiens, UniProt Q9UM73). In words: Inhibition of ALK (unknown origin).
A further data set relates to KARPAS-299. The experiment in a line: cells. Conditions: Homo sapiens, KARPAS-299, 72 h.
Data set [2] can be described thus: Inhibition of BTK C481T mutant (unknown origin). Set-up: species or system Homo sapiens.
Data set [3] addresses Tyrosine-protein kinase BTK (Homo sapiens, UniProt Q06187).
Description: Inhibition of wild type BTK in human CLL cells assessed as
In data set [4] the target is Phosphatidylinositol 4,5-bisphosphate 3-kinase catalytic subunit gamma isoform (Homo sapiens, UniProt P48736). The experiment in a line: Inhibition of PI3Kgamma (unknown origin).
Data set [5] is described as follows: Antiproliferative activity against human ROSA KIT WT cells. It counts as toxicity, cell-based.
The nature of data set [6]: Anticancer activity against human ME-1 cells. It counts as functional, cell-based.
A further data set concerns U-266. The experiment in a line: Antiproliferative activity against human U266B1 cells assessed as reduction in cell viability. It counts as functional, cell-based.
Another data set deals with RPMI-8226. The experiment in a line: Anticancer activity against human RPMI-8226 cells assessed as reduction in cell growth. The data set is classed as functional, cell-based.
In the next data set the test system is NCI-H358. The experiment in a line: Antiproliferative activity against human NCI-H358 cells assessed as reduction in cell viability. The data set is classed as functional, cell-based.
For a further data set, the system named is MIA PaCa-2. In words: Antiproliferative activity against human MIA PaCa-2 cells assessed as reduction in cell viability. The data set is classed as functional, cell-based.

Counter-ions that a name gives are not always drawn.

ALK tyrosine kinase receptor, sequence (Q9UM73 whole entry): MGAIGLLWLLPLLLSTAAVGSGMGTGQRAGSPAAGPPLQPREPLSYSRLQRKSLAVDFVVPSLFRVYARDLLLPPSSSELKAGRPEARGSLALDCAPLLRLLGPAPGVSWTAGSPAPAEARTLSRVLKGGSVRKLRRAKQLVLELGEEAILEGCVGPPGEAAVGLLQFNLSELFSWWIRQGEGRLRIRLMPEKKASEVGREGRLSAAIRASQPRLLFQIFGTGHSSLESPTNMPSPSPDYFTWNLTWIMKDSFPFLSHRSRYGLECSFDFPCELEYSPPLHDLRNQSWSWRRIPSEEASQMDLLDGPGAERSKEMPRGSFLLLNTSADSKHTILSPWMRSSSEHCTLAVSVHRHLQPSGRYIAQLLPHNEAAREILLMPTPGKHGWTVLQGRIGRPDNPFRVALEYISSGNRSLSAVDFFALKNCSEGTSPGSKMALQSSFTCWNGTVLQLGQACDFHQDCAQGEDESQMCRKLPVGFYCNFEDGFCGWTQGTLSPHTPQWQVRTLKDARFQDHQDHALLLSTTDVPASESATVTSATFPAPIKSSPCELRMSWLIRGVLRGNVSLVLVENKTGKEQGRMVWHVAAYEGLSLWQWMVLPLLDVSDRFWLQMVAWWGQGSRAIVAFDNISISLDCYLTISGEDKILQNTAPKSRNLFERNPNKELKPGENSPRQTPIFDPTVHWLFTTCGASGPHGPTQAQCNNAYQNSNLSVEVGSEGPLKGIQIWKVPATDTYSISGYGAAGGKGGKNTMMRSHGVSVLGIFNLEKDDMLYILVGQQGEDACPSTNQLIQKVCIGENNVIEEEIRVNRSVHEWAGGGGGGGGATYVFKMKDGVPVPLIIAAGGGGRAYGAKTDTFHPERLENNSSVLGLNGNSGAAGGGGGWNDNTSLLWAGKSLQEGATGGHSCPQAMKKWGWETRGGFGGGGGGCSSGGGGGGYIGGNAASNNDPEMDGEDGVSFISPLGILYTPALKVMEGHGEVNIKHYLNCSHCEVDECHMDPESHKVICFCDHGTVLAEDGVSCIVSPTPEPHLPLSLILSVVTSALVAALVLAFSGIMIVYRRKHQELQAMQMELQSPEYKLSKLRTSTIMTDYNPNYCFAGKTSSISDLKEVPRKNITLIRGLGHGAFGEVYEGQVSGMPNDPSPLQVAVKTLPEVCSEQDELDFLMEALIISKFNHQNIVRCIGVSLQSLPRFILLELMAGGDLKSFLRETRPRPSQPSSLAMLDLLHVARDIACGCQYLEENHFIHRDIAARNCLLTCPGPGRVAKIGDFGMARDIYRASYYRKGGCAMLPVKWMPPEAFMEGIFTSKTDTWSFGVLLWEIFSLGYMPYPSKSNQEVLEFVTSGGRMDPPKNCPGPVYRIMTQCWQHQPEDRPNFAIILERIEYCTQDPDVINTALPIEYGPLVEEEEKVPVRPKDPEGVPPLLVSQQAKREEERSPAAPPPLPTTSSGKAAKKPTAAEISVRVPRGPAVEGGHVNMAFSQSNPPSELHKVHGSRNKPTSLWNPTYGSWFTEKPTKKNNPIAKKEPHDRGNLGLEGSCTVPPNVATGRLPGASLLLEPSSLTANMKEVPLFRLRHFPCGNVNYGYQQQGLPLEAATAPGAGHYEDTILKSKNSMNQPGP
Phosphatidylinositol 4,5-bisphosphate 3-kinase catalytic subunit gamma isoform, sequence (P48736 whole entry, canonical isoform): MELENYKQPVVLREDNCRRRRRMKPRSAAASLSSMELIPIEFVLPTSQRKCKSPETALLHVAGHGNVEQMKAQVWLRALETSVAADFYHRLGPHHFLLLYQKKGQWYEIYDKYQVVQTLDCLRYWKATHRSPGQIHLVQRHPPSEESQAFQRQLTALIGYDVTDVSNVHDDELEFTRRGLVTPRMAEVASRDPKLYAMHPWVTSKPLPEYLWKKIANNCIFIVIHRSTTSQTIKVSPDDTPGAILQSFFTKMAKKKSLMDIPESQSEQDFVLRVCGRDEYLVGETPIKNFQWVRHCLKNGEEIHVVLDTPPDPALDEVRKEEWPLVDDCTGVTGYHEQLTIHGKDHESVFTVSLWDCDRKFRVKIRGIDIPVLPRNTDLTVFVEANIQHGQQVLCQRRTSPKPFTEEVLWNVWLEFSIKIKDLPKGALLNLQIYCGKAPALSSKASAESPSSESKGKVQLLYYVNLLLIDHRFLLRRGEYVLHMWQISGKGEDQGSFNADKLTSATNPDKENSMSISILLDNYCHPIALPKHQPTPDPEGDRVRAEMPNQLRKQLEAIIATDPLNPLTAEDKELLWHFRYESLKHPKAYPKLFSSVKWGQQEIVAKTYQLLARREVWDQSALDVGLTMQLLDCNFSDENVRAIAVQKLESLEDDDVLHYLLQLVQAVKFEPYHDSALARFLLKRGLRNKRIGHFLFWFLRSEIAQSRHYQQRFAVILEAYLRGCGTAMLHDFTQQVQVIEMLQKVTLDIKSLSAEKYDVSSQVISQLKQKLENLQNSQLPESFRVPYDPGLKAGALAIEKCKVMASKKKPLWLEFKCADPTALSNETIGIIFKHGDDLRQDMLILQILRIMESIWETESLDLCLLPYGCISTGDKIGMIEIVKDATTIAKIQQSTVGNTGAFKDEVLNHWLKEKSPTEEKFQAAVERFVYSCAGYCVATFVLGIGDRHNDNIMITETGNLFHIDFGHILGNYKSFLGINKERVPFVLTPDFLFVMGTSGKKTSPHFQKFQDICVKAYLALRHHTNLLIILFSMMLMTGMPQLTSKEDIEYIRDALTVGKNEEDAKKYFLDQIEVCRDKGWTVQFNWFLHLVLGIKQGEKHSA
Tyrosine-protein kinase BTK, sequence (Q06187 whole entry, canonical isoform): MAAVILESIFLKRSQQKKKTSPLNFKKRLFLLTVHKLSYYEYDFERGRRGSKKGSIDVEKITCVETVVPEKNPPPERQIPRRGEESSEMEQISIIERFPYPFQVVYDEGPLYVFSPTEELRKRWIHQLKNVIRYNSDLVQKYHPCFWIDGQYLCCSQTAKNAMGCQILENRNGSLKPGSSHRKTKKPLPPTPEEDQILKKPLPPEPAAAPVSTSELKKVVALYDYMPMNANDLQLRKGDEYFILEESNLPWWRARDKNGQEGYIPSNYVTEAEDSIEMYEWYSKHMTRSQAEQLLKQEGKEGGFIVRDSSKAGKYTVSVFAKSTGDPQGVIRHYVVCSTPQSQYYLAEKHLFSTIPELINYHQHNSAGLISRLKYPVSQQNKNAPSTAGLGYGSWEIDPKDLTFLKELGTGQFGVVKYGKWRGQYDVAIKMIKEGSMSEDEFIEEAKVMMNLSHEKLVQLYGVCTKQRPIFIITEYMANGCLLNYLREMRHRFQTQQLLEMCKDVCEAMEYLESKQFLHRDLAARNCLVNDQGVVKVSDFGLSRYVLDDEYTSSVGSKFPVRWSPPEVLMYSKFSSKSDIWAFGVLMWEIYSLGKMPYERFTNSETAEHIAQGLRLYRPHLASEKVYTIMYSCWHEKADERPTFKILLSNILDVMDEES
Description for KARPAS-299: Antiproliferative activity against human KARPAS-299 cells assessed as inhibition of cell growth incubated for 72 hrs by celltiter-glo assay

What is called IC50 is the concentration needed to halve the response being measured. Turning to `CN1CCN(c2ccc(C(=O)Nc3n[nH]c4ccc(Cc5ccccc5)cc34)c(NC3CCOCC3)c2)CC1`, the IC50 in [1] was found to be 100 nM; with KARPAS-299, 180 nM.

Take `COc1ccc(F)cc1C(=O)NCc1ccc(-c2nn([C@@H](C)C(F)(F)F)c(N)c2C(N)=O)cc1` [PIRTOBRUTINIB]: the results for the IC50 in [2] and in data set [3] were 7.23 nM and 3.68 nM, respectively.

As to `CCC(=O)N1CC[C@H](Nc2ncnc3c2CN(c2cnc(OC)c(C(F)(F)F)c2)CC3)C1` [LENIOLISIB], in [4], it took 2.23 nM to reach half-maximal inhibition (IC50).

Consider `CCn1c(=O)c(-c2cc(NC(=O)Nc3ccccc3)c(F)cc2Br)cc2cnc(NC)cc21` [RIPRETINIB], for which the IC50 in [5] came to 34 nM.

Take `O=C(/C=C\n1cnc(-c2cc(C(F)(F)F)cc(C(F)(F)F)c2)n1)NNc1cnccn1` [SELINEXOR]: the IC50 in data set [6] was found to be 34 nM.

Take `CN1CCN(c2ccc(C(=O)Nc3n[nH]c4ccc(Cc5cccc(F)c5)cc34)c(NC3CCOCC3)c2)CC1`: the IC50 with KARPAS-299 stood at 10 nM.

As to `CCOC(=O)[C@H](Cc1ccc(F)cc1)NC(=O)[C@@H](N)Cc1ccc(N(CCCl)CCCl)cc1` [MELPHALAN FLUFENAMIDE HYDROCHLORIDE], the IC50 came out at 6 nM with U-266 and 4 nM with RPMI-8226.

As to `C=CC(=O)N1CCN(c2nc(=O)n(-c3c(C)ccnc3C(C)C)c3nc(-c4c(O)cccc4F)c(F)cc23)[C@@H](C)C1` [SOTORASIB], the IC50 was determined as 6 nM in the data set with NCI-H358 and 9 nM in the data set with MIA PaCa-2.
